Data: PubChem BioAssay (NCI)
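Interpolation was linear, between the two tested concentrations surrounding the appropriate level; five concentrations were tested over 48 hours in 96-well plates. TGI: concentration producing complete growth inhibition.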 Where a SMILES comes first, the peptide text is derived from it. The star is where a group is joined. Boc = CC(C)(C)OC(=O)*

Tests used:
Assay in all cases: NCI tumour cell line growth inhibition, 48 h
[1] = test system: NCI/ADR-RES ovarian
[2] = test system: HCC-2998 colon
[3] = test system: K-562 leukemia
[4] = test system: UACC-62 melanoma
[5] = test system: HL-60(TB) leukemia
[6] = test system: HT29 colon
[7] = test system: SNB-75 CNS
[8] = test system: TK-10 renal
[9] = test system: SF-539 CNS
[10] = test system: RPMI-8226 leukemia

Row | SMILES | TGI [1] | TGI [2] | TGI [3] | TGI [4] | TGI [5] | TGI [6] | TGI [7] | TGI [8] | TGI [9] | TGI [10]
1 | CCOC(=N)n1c(=O)n(C2=NCCN2)c2ccccc21 | > 100 µM | > 100 µM | > 100 µM | > 100 µM | > 100 µM | > 100 µM | > 100 µM | > 100 µM | > 100 µM | 
2 | COc1ccc(CC(O)CN2CCOCC2)cc1 (stereo not drawn) | > 100 µM |  | > 100 µM | > 100 µM | > 100 µM | > 100 µM |  | > 100 µM |  | 
3 | COc1ccc(C#CC(=O)O)c(OC)c1 | > 100 µM | > 100 µM | > 100 µM | > 100 µM | > 100 µM | > 100 µM |  | > 100 µM | > 100 µM | > 100 µM
4 | C=CCn1c(=O)ccn(COCCO)c1=O | > 100 µM | > 100 µM | > 100 µM |  | > 100 µM | > 100 µM | > 100 µM | > 100 µM | > 100 µM | > 100 µM
5 | COc1cc(C2SCC(=O)N2c2ccc(NC(=O)c3ccc(N4C(=O)CSC4c4cc(OC)c(OC)c(OC)c4)cc3)cc2)cc(OC)c1OC (stereo not drawn) | 70.6 µM | > 100 µM | > 100 µM | 76.6 µM |  | > 100 µM | > 100 µM | > 100 µM | > 100 µM | > 100 µM
6 | NNC(=O)c1ccc[n+](CCc2ccccc2)c1 | > 100 µM | > 100 µM | > 100 µM | > 100 µM | > 100 µM | > 100 µM | > 100 µM | > 100 µM |  | > 100 µM
7 | O=C1/C(=C\c2cccc(Oc3ccccc3)c2)S(=O)(=O)C(c2ccccc2)N1Cc1ccccc1 (stereo not drawn) | 45 µM | 82.5 µM | > 100 µM | 57.7 µM | 57.7 µM |  |  | > 100 µM | > 100 µM | 
8 | Cc1cn(C2OC(C)(CO)C(O)C2O)c(=O)[nH]c1=O (stereo not drawn) |  | > 100 µM | > 100 µM | > 100 µM |  | > 100 µM | > 100 µM | > 100 µM | > 100 µM | > 100 µM
9 | C=CCNC(=S)/N=C/c1c(O)c2ccccc2oc1=O |  | > 100 µM | > 100 µM | > 100 µM | > 100 µM | > 100 µM | > 100 µM | > 100 µM | > 100 µM | > 100 µM
10 | c1ccc2c(c1)NC(C1OC3CCCN3C1C1Nc3ccccc3S1)S2 (stereo not drawn) |  | > 100 µM | > 100 µM | > 100 µM | 46.7 µM | > 100 µM | > 100 µM | > 100 µM | > 100 µM | 76.3 µM
11 | CC(=O)N/N=C1\NC(=O)C[C@H]2[C@@H]3CC=C4C[C@@H](OC(C)=O)CC[C@]4(C)[C@H]3CC[C@]12C | > 100 µM |  | > 100 µM | 59 µM | > 100 µM | > 100 µM | 46.9 µM | 41.7 µM | 25.9 µM | > 100 µM
12 | CCN(CC)CCOc1ccc(N2C(=O)c3cc(OC)c(OC)cc3C2=O)cc1 | > 100 µM | > 100 µM | > 100 µM | > 100 µM | > 100 µM | > 100 µM |  | > 100 µM | > 100 µM | > 100 µM
13 | Cc1cc(=O)c2c([nH]1)NS(=O)(=O)NC2=O |  | > 100 µM | > 100 µM | > 100 µM | > 100 µM | > 100 µM | > 100 µM | > 100 µM | > 100 µM | > 100 µM
14 | O=[N+]([O-])/C(C(Cl)=C(Cl)Cl)=C(\Nc1cccc2cccnc12)SCc1ccccc1 | 51.7 µM | 36.7 µM | 56.9 µM | 63.7 µM |  | 48.5 µM | 40.9 µM |  | 32.6 µM | > 100 µM
15 | CC(C)(C)NC(=O)/C(=C\Sc1ccccc1)c1ccc2c(c1)OCO2 | 97.5 µM | > 100 µM | > 100 µM | 57.9 µM | 41.9 µM | 35.9 µM |  | > 100 µM | > 100 µM | 94.4 µM
16 | CC(C)(C)OC(=O)NCC(=O)NCC(=O)NCC(=O)NCC(=O)O (Boc-GGGG-OH) | > 100 µM | > 100 µM | > 100 µM | > 100 µM | > 100 µM | > 100 µM |  | > 100 µM | > 100 µM | > 100 µM
17 | C/C=C/C=C/c1nc(C#N)c(N)o1 | > 100 µM | > 100 µM | > 100 µM | > 100 µM |  | > 100 µM | > 100 µM | > 100 µM | > 100 µM | > 100 µM
18 | CCOC(=O)/C=C(\C)c1ccc(C)cc1C |  | > 100 µM | > 100 µM |  | 11.9 µM | > 100 µM | > 100 µM | > 100 µM | > 100 µM | 68.2 µM
19 | Cc1c(S(=O)(=O)/N=C(\N)Nc2ccc(Cl)cc2)sc2ccc(Cl)cc12 | 47.1 µM |  | > 100 µM | 45.4 µM | 63.5 µM | 38.8 µM | 43.5 µM | 39.5 µM | > 100 µM | > 100 µM
20 | O=C1CN2C(c3ccccc3)=NN(c3ccc([N+](=O)[O-])cc3)C2(c2ccccc2)c2cc(Cl)ccc2N1CC1CC1 (stereo not drawn) | > 100 µM | > 100 µM | > 100 µM | > 100 µM |  | > 100 µM | > 100 µM | > 100 µM | > 100 µM | > 100 µM
21 | C=CC[C@]12C[C@@H](C(=O)OC)N(C(=O)OC)[C@H]1N(S(=O)(=O)c1ccccc1)c1ccccc12 | > 100 µM | > 100 µM | > 100 µM |  | > 100 µM | > 100 µM | > 100 µM | > 100 µM | > 100 µM | > 100 µM
22 | CC12CC(=O)C3C(C(=O)C1)C32C (stereo not drawn) | > 100 µM | > 100 µM | > 100 µM | > 100 µM |  | > 100 µM | > 100 µM | > 100 µM | > 100 µM | > 100 µM
23 | Cc1ccccc1C(O)(c1nccn1C)c1nccn1C | > 100 µM | > 100 µM | > 100 µM | > 100 µM | > 100 µM | > 100 µM | > 100 µM | > 100 µM | > 100 µM | 
24 | CCN(C(=S)N[C@@H](Cc1ccccc1)C(=O)N[C@@H](CC(C)C)C(=O)OC)c1ccccc1 | > 100 µM | > 100 µM | > 100 µM | > 100 µM |  | > 100 µM | > 100 µM | > 100 µM | > 100 µM | > 100 µM
